The values that follow come from the kinase profiling compilation of Christmann-Franck et al. (2016).

What all share (experiment): KINOMEscan competition binding
Holding throughout (details): compound 10.0 µM

Test [1] relates to MET (human), P08581 [M1250T].
The test system of test [2] is KIT (human), P10721 [A829P].
In test [3] the test system is EGFR (human), P00533 [A750P; 747-749 del].
The test system of test [4] is EGFR (human), P00533 [L858R].
The subject of test [5] is BMX (human), P51813 [V600E].
Test [6] relates to RET (human), P07949 [V804L].
Test [7] relates to ABL1 (human), P00519 [F317I].
ABL1 (human), P00519 [F317I], sequence (P00519 whole entry F317I, looked up): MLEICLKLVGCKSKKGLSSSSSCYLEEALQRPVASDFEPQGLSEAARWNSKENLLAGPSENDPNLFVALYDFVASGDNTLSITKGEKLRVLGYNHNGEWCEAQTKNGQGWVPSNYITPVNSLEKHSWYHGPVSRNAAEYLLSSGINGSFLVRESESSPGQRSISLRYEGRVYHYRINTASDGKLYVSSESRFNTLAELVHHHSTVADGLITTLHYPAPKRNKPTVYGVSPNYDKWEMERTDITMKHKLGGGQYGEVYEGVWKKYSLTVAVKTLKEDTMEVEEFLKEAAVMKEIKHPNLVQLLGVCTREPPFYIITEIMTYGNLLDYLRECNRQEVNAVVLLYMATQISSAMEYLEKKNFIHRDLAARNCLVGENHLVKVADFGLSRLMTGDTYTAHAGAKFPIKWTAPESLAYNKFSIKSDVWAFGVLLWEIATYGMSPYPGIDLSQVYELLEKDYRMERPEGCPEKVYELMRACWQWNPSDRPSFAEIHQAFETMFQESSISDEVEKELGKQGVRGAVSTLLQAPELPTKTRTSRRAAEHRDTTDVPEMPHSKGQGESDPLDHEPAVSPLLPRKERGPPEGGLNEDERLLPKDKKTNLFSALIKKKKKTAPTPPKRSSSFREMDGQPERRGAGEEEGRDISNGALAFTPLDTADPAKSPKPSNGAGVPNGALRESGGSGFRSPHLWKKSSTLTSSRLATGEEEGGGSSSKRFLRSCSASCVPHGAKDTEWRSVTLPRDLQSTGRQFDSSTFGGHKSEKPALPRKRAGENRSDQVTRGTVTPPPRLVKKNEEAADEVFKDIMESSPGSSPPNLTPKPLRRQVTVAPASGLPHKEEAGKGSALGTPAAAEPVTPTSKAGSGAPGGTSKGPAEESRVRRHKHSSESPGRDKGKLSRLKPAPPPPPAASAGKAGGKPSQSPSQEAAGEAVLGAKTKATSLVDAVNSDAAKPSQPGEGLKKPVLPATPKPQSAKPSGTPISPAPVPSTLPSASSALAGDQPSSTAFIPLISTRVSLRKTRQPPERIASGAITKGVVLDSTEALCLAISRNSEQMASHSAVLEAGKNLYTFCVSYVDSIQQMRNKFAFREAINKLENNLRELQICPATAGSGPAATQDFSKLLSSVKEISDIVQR
Test [8] deals with LRRK2 (human), Q5S007 [G2019S].
For test [9], the system named is PIK3CA (human), P42336 [M1043I].
PIK3CA (human), P42336 [M1043I], sequence (P42336 whole entry M1043I, looked up): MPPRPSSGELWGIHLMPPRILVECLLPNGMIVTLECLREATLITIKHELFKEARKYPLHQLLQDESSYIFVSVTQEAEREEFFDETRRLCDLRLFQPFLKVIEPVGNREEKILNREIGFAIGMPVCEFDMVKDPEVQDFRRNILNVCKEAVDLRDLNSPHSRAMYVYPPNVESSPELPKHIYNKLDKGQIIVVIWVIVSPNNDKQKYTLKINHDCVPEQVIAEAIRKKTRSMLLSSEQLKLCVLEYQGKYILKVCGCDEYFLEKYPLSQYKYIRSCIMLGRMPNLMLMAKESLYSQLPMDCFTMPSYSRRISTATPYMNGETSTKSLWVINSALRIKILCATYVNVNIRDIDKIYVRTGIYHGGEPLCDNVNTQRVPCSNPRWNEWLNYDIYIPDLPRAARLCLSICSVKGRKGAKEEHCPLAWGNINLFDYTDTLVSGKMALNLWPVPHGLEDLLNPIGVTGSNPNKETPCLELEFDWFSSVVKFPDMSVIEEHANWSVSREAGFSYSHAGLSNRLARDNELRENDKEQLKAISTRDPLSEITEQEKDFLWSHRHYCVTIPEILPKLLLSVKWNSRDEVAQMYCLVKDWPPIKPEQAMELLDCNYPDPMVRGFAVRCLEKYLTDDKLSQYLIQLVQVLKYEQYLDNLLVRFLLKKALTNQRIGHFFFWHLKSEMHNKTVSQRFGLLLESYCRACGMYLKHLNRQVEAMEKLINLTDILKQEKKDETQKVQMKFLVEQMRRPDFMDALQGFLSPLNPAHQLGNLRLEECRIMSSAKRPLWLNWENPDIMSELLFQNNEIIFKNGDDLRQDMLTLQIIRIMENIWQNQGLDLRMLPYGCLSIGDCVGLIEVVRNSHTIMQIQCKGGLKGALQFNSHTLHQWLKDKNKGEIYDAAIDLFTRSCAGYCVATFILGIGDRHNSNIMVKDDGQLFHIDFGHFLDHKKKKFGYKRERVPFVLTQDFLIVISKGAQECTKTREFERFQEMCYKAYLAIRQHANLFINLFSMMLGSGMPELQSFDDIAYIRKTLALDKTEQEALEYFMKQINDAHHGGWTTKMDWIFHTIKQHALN
Test [10] deals with FGFR3 (human), P22607 [G697C].
FGFR3 (human), P22607 [G697C], sequence (P22607 whole entry G697C, looked up): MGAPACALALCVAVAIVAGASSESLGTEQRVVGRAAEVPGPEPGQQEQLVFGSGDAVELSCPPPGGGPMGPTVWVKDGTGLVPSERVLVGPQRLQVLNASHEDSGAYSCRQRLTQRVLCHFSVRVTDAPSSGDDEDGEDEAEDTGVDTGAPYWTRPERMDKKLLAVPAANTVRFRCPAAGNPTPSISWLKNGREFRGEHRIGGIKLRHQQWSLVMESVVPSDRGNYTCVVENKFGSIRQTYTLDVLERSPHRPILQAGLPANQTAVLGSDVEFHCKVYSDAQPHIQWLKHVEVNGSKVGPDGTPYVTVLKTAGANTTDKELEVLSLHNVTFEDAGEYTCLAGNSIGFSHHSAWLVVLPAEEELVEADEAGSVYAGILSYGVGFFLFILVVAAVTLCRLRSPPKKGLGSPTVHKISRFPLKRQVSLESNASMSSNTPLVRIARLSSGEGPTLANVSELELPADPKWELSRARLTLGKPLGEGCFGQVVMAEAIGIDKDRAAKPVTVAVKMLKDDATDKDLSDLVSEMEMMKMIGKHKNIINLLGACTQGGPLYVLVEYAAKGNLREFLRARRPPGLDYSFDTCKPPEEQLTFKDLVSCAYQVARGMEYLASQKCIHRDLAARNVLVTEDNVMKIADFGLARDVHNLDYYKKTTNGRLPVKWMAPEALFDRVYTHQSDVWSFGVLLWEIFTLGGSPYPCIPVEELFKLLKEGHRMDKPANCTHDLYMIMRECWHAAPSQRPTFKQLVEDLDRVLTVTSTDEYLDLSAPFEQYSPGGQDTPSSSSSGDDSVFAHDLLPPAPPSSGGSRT
For test [11], the system named is PIK3CA (human), P42336 [E542K].
PIK3CA (human), P42336 [E542K], sequence (P42336 whole entry E542K, looked up): as the sequence (P42336 whole entry M1043I, looked up) above, with E542K, I1043M counted along it
Test [12] deals with PIK3CA (human), P42336 [H1047L].
PIK3CA (human), P42336 [H1047L], sequence (P42336 whole entry H1047L, looked up): as the sequence (P42336 whole entry M1043I, looked up) above, with I1043M, H1047L counted along it
In test [13] the test system is ABL1 (human), P00519 [F317L].
ABL1 (human), P00519 [F317L], sequence (P00519 whole entry F317L, looked up): as the sequence (P00519 whole entry F317I, looked up) above, with I317L counted along it

KIT (human), P10721 [A829P], sequence (P10721 whole entry A829P, looked up): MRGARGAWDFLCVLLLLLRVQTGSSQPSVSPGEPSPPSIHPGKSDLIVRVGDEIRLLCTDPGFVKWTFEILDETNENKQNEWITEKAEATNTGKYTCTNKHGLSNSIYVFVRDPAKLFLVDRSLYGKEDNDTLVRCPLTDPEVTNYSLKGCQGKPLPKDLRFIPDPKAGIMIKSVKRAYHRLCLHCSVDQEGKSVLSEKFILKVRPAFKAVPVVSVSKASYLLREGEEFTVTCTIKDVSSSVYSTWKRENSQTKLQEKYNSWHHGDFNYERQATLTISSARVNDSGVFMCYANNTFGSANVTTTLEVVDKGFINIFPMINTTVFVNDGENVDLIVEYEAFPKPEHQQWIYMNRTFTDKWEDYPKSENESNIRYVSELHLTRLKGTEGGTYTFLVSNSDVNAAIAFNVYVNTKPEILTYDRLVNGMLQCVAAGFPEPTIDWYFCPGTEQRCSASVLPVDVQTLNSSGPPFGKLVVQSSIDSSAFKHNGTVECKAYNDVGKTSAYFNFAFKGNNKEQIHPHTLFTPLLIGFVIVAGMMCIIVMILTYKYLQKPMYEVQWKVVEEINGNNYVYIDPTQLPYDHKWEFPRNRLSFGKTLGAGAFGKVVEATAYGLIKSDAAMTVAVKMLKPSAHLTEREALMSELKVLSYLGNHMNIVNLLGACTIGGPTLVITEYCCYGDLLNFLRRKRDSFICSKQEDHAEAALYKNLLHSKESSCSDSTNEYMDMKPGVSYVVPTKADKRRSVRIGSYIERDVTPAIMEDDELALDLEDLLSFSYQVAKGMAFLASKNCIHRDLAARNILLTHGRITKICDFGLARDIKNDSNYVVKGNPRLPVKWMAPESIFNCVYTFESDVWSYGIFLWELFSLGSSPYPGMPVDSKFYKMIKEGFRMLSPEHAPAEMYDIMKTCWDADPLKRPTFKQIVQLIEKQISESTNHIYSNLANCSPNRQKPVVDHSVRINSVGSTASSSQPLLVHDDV
BMX (human), P51813 [V600E], sequence (P51813 whole entry, looked up, stated change not applied): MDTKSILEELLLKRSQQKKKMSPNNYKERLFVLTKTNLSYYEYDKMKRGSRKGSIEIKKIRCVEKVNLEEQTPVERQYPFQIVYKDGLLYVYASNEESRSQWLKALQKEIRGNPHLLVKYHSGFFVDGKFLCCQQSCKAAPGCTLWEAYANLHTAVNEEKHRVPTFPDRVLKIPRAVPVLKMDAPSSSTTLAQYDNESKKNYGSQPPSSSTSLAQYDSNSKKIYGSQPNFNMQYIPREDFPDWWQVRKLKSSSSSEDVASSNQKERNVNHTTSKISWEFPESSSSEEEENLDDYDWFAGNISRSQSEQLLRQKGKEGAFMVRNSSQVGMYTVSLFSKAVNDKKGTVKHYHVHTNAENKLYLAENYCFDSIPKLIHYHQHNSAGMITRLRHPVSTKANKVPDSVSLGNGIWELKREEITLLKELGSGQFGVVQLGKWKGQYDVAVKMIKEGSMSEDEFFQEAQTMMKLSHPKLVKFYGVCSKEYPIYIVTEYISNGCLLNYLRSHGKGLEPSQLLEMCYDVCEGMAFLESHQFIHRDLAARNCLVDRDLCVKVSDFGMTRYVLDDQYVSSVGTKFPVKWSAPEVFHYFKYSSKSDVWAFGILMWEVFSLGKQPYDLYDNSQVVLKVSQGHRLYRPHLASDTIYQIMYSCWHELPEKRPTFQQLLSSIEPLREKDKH

Turning to `N#CCNC(=O)c1ccc(-c2ccnc(Nc3ccc(N4CCOCC4)cc3)n2)cc1`, the kinase still bound, per cent of control in [1] worked out at 100%; in test [2], 72%; in test [3], 100%; in test [4], 100%; in test [5], 56%; in test [6] it was 64%. Also, the kinase still bound, per cent of control in [7] was 55%; in test [8], 41%; in [9], 100%; in test [10], 79%; in test [11], 100%; in test [12], 100%. In [13], this compound displayed a kinase still bound, per cent of control of 100%.
